How the values were obtained:
EP2 [1] = target: T1, EP2 (Homo sapiens, UniProt P43116); assay: Ki competition binding, EP2; set-up: expressed in transfected cells; conditions: [3H]PGE2 competition; NA = no activity
Experimental: (§1) Data from running binding and activity studies on the compounds of the invention were carried out as described in U.S. Pat. No. 7,427,685, the contents of which are incorporated herein by reference.
Competition binding experiments were performed in a medium containing Hank's balanced salt solution, Hepes 20 mM, pH 7.3, membranes (˜60 μg protein) or 2×10^5 cells from HEK 293 cells stably expressing human EP2 receptors, [^3H]PGE2 (10 nM) and various concentrations of test compounds in a total volume of 300 μl. Reaction mixtures were incubated at 23° C. for 60 min, and were filtered over Whatman GF IB filters under vacuum. Filters were washed three times with 5 ml ice-cold buffer containing 50 mM Tris/HCl (PH 7.3). Non-specific binding was estimated in the presence of excess unlabeled PGE2 (10 μM). Binding data fitted to the binding model for a single class of binding sites, using nonlinear regression analysis. IC50 values thus obtained were converted to Ki using the equation of Ki=(IC50/(1+[L]/KD) where [L] represents PGE2 concentration (10 nM) and KD the dissociation constant for [^3H]PGE2 at human EP2 receptors (40 nM).
(§2) Cells Stably Expressing EP1, EP2, EP4, and FP Receptors
(§3) HEK-293 cells stably expressing the human or feline FP receptor, or EP1, EP2, or EP4 receptors were washed with TME buffer, scraped from the bottom of the flasks, and homogenized for 30 sec using a Brinkman PT 10/35 polytron. TME buffer was added to achieve a final 40 ml volume in the centrifuge tubes (the composition of TME is 100 mM TRIS base, 20 mM MgCl2, […]; ION HCl is added to achieve a pH of 7.4).
(§4) The cell homogenate was centrifuged at 19000 rpm for 20 min at 4° C. using a Beckman Ti-60 rotor. The resultant pellet was resuspended in TME buffer to give a final 1 mg/ml protein concentration, as determined by Biorad assay. Radioligand binding competition assays vs. [^3H-]17-phenyl PGF2α (5 nM) were performed in a 100 μl volume for 60 min. Binding reactions were started by adding plasma membrane fraction. The reaction was terminated by the addition of 4 ml ice-cold TRIS-HCl buffer and rapid filtration through glass fiber GF/B filters using a Brandel cell harvester. The filters were washed 3 times with ice-cold buffer and oven dried for one hour.
(§5) [^3H-] PGE2 (specific activity 180 Ci mmol) was used as the radio ligand for EP receptors. [^3H] 17-phenyl PGF2α was employed for FP receptor binding studies. Binding studies employing EP1, EP2, EP4 and FP receptors were performed in duplicate in at least three separate experiments. A 200 μl assay volume was used. Incubations were for 60 min at 25° C. and were terminated by the addition of 4 ml of ice-cold 50 mM TRIS-HCl, followed by rapid filtration through Whatman GF/B filters and three additional 4 ml washes in a cell harvester (Brandel). Competition studies were performed using a final concentration of 5 nM [^3H]-PGE2, or 5 nM [^3H] 17-phenyl PGF2α and non-specific binding determined with 10^−5M of unlabeled PGE2, or 17-phenyl PGF2α, according to receptor subtype studied.

EP4 [2] = target: T2, EP4 (Homo sapiens, UniProt P35408); assay: Radioligand binding, EP4; set-up: expressed in transfected cells; membrane fraction; conditions: [3H]PGE2 competition
T2 sequence (P35408 whole entry): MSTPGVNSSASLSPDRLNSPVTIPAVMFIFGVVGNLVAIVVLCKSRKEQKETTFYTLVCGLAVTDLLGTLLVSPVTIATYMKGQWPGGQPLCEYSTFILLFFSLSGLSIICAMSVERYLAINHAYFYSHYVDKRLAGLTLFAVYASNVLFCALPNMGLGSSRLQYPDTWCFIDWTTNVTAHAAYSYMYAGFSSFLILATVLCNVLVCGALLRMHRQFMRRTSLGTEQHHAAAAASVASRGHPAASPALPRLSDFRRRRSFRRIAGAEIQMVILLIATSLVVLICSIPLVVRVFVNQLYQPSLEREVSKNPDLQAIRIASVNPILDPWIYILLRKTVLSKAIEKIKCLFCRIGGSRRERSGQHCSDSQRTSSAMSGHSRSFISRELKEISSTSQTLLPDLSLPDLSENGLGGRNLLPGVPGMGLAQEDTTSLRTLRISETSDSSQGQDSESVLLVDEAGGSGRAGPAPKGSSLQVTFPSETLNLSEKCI
Experimental: as §1, §2, §3, §4, §5

EP2 [3] = target: T1, EP2; assay: cAMP assay, EP2; format: cell-based; set-up: expressed in transfected cells; host or cells: HEK-EBNA cells; conditions: HEK-EBNA cells expressing EP2
Experimental: (§6) A 384-well drug plate was prepared to contain 6 test compounds, PGE2 and cAMP in 16 serial dilutions in triplicate, using a Biomek station. HEK-EBNA cells expressing a target PG receptor subtype (EP2 or EP4) were suspended in a stimulation buffer (HBSS, 0.1% BSA, 0.5 mM IBMX and 5 mM HEPES, pH 7.4) in a density of 10^4 cells/5 μL. The reaction was initiated by mixing 5 μL drug dilutions with 5 μL of HEK-EBNA cells in a well, carried out for 30 min at room temperature, and followed by the addition of 5 μL anti-cAMP acceptor beads in the control buffer with Tween-20 (25 mM NaCl, 0.03% Tween-20, 5 mM HEPES, pH 7.4). After 30 min in the dark at room temperature, the mixtures were incubated with 15 μL biotinylated-cAMP/strepavidin donor beads in Lysis/Detection buffer (0.1% BSA, 0.3% Tween-20 and 5 mM HEPES, pH 7.4) for 45 min at the room temperature. Fluorescence changes were read using a Fusion-alpha HT microplate reader.

EP4 [4] = target: T2, EP4; assay: cAMP assay, EP4; format: cell-based; set-up: expressed in transfected cells; host or cells: HEK-EBNA cells; conditions: HEK-EBNA cells expressing EP4
Experimental: as §6

hIP = target: T3, hIP (Homo sapiens, UniProt P43119); assay: FLIPR calcium signal, hIP; format: cell-based; conditions: HEK-293(EBNA) cells; NA = no activity; read-out: Other Receptors EC50 hIP
T3 construct: expressed in transfected cells
T3 sequence (P43119 whole entry): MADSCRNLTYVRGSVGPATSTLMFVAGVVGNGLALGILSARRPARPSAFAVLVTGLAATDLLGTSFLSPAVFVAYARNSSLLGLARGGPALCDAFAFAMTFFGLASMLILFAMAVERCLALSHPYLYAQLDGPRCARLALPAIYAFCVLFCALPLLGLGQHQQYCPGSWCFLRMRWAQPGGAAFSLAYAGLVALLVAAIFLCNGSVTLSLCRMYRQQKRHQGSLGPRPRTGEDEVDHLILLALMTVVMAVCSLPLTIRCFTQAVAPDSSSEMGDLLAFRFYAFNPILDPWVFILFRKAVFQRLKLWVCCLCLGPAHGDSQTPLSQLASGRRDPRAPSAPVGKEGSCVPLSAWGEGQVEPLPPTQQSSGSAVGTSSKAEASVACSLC
Experimental: Methods for FLIPR™ Studies
HEK-293(EBNA) cells, stably expressing one type or subtype of recombinant human prostaglandin receptors (prostaglandin receptors expressed: hDP/Gqs5; hEP1; hEP2/Gqs5; hEP3A/Gqi5; hEP4/Gqs5; hFP; hIP; hTP), were cultured in 100 mm culture dishes in high-glucose DMEM medium containing 10% fetal bovine serum, 2 mM I-glutamine, 250 μg/ml geneticin (G418) and 200 μg/ml hygromycin B as selection markers, and 100 units/ml penicillin G, 100 μg/ml streptomycin and 0.25 μg/ml amphotericin B.
(b) Calcium Signal Studies on the FLIPR™
Cells were seeded at a density of 5×10^4 cells per well in Biocoat® Poly-D-lysine-coated black-wall, clear-bottom 96-well plates (Becton-Dickinson) and allowed to attach overnight in an incubator at 37° C. Cells were then washed two times with HBSS-HEPES buffer (Hanks Balanced Salt Solution without bicarbonate and phenol red, 20 mM HEPES, pH 7.4) using a Denley Cellwash plate washer (Labsystems). […]
Cells were excited with an Argon laser at 488 nm, and emission was measured through a 510-570 nm bandwidth emission filter (FLIPR™, Molecular Devices, Sunnyvale, Calif.). […] The peak increase in fluorescence intensity was recorded for each well. […] The peak fluorescence change in each drug-containing well was then expressed relative to the controls. […]

T1 sequence (P43116 whole entry): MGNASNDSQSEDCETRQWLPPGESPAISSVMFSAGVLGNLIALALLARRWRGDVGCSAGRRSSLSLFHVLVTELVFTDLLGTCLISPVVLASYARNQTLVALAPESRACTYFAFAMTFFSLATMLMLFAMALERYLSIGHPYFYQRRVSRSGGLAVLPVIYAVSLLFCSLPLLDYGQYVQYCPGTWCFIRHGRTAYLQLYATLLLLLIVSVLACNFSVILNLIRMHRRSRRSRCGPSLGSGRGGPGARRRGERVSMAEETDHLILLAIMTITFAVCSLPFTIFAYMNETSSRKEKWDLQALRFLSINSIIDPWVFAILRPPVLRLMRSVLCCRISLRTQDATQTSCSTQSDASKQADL

Structure (SMILES) | Ki (EP2 [1]) | Ki (EP4 [2]) | EC50 (EP2 [3]) | EC50 (EP4 [4]) | EC50 (hIP)
O=C(O)c1ccc(CNC(=O)C2CCCC2Cc2cccc(C(F)(F)F)c2)cc1 (single isomer, unassigned) [Example 5, 4-((2-(3-(Trifluoromethyl)benzyl)cyclopentanecarboxamido)methyl)benzoic Acid] | 154 nM | 8 nM | 13 nM | > 10000 nM | 
O=C(O)c1ccc(CNC(=O)C2CCCC2Cc2cccc(C(F)(F)F)c2)cc1 (single isomer, unassigned) [Example 6, 4-((2-(3-(Trifluoromethyl)benzyl)cyclopentanecarboxamido)methyl)benzoic Acid] | 733 nM | 18 nM | 10 nM | > 10000 nM | > 10000 nM
COc1cc(CC2CCCCC2C(=O)NCc2ccc(C(=O)O)cc2)cc(OC)c1 (single isomer, unassigned) [Example 9, 4-((2-(3,5-Dimethoxybenzyl)cyclohexanecarboxamido)methyl)benzoic Acid] | 2150 nM | 2 nM | 389 nM | > 10000 nM | 
COc1cc(CC2CCCCC2C(=O)NCc2ccc(C(=O)O)cc2)cc(OC)c1 (single isomer, unassigned) [Example 10, 4-((2-(3,5-Dimethoxybenzyl)cyclohexanecarboxamido)methyl)benzoic Acid] | 908 nM | 2 nM | 25 nM | 0.2 nM | 
COc1cc(CC2CCCCCC2C(=O)NCc2ccc(C(=O)O)cc2)cc(OC)c1 (single isomer, unassigned) [Example 12, 4-((2-(3,5-Dimethoxybenzyl)cycloheptanecarboxamido)methyl)benzoic Acid] | > 10000 nM | 9 nM | 1310 nM | > 10000 nM | 
COc1cc(CC2CCCCCC2C(=O)NCc2ccc(C(=O)O)cc2)cc(OC)c1 (single isomer, unassigned) [Example 13, 4-((2-(3,5-Dimethoxybenzyl)cycloheptanecarboxamido)methyl)benzoic Acid] | 6300 nM | 2 nM | 573 nM | 0.2 nM | 
COc1cc(CC2=C(C(=O)NCc3ccc(C(=O)O)cc3)CCC2)cc(OC)c1 [Example 3, 4-((2-(3,5-Dimethoxybenzyl)cyclopent-1-enecarboxamido)methyl)benzoic Acid] | 1120 nM | 5 nM | 33 nM | 1 nM | 
O=C(NCc1ccc(C(=O)O)cc1)C1=C(Cc2cccc(C(F)(F)F)c2)CCC1 [Example 4, 4-((2-(3-(Trifluoromethyl)benzyl)cyclopent-1-enecarboxamido)methyl)benzoic Acid] | 109 nM | 7 nM | 2 nM | > 10000 nM | 
COc1cc(CC2=C(C(=O)NCc3ccc(C(=O)O)cc3)CCCC2)cc(OC)c1 [Example 8, 4-((2-(3,5-Dimethoxybenzyl)cyclohex-1-enecarboxamido)methyl)benzoic Acid] | 177 nM | 1 nM | 2 nM | 0.2 nM | 
COc1cc(CC2=C(C(=O)NCc3ccc(C(=O)O)cc3)CCCCC2)cc(OC)c1 [Example 11, 4-((2-(3,5-Dimethoxybenzyl)cyclohept-1-enecarboxamido)methyl)benzoic Acid] | 2780 nM | 1 nM | 48 nM | > 10000 nM | > 10000 nM
COc1cc(C/C2=C(\C(=O)NCc3ccc(C(=O)O)cc3)CCCCCC2)cc(OC)c1 [Example 20, 4-((2-(3,5-Dimethoxybenzyl)cyclooct-1-enecarboxamido)methyl)benzoic Acid] | > 10000 nM | 0.2 nM |  | > 10000 nM | 
O=C(NCc1ccc(C(=O)O)cc1)C1=C(Cc2ccccc2Cl)CCCC1 [Example 24, 4-((2-(2-Chlorobenzyl)cyclohex-1-enecarboxamido)methyl)benzoic Acid] | 83 nM | 4 nM |  | > 10000 nM | 
COc1cccc(CC2=C(C(=O)NCc3ccc(C(=O)O)cc3)CCCC2)c1 [Example 27, 4-((2-(3-Methoxybenzyl)cyclohex-1-enecarboxamido)methyl)benzoic Acid] | 138 nM | 2 nM |  | > 10000 nM | 
COc1ccccc1CC1=C(C(=O)NCc2ccc(C(=O)O)cc2)CCCC1 [Example 30, 4-((2-(2-Methoxybenzyl)cyclohex-1-enecarboxamido)methyl)benzoic Acid] | 219 nM | 6 nM |  | > 10000 nM | 
COc1ccc(CC2=C(C(=O)NCc3ccc(C(=O)O)cc3)CCCC2)cc1 [Example 33, 4-((2-(4-Methoxybenzyl)cyclohex-1-enecarboxamido)methyl)benzoic Acid] | 1140 nM | 1 nM |  | > 10000 nM | 
